59 sequences from the supplement of paper PMC11208160 can be followed below.

The data set is described as follows: recombinant barcode read abundance after kanamycin selection (control-corrected) (log10(CPM+1)); higher = more efficient recombination; sequences stand for … in AGTGCAGAGAAAATCGGCCAGTTTTCTCTGCCTGCAGTCCGCATGCCGT…AGATTTATGCAGCGGACTGCCTTTCTCCCAAAGTGATAAACCGGACAGTATCATGGACCGGTTTTCCCGGTAATCCGTATTTGCAAGGTTGGTTTCACT; site = the 11-nt target. The method in brief: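 In a pooled screen in E. coli, targets were paired with target-binding loops of the IS621 bridge RNA. Each oligo carried a promoter, a target, a barcode and the first 104 bridge RNA bases driven by J23119, and was Gibson-cloned into a vector holding the remaining 73 bp and a T7-inducible recombinase before co-electroporation with a donor plasmid. Duplicate platings went onto chloramphenicol/ampicillin LB agar as the control or onto chloramphenicol/ampicillin/kanamycin with 0.1 mM IPTG. Recombination efficiency is the averaged, control-corrected count per million of barcodes at recombinant junctions, given as log10(CPM+1).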
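Note: IS621 recombinase and bridge RNA in Escherichia coli cells.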

As to “TAGCCCTCTTGGGTTCTAACCTGTTGCCG (site TAGTCCGCTCG)”, the “recombinant barcode read abundance (log10)” value came out at 0.023.

For the sequence “TAGCCGGCTTGGGTTCTAACCTGTTGCAG (site GAGCCGACTCT)”, the “recombinant barcode read abundance (log10)” value came out at 0.385.

In the case of “TAGCCGGCTTGGGTTCTAACCTGTTGCAG (site TAGCCGGCTCT)”, the “recombinant barcode read abundance (log10)” value came to 1.06.

Turning to “TAGCCGGCTTGGGTTCTAACCTGTTGCCT (site TAGCCGGCTAA)”, the “recombinant barcode read abundance (log10)” value was determined as 0.264.

As for “TAGCCGGCTTGGGTTCTAACCTGTTGCCT (site TAGCCGGCTAG)”, the “recombinant barcode read abundance (log10)” value was determined as 0.907.

For the sequence “TAGCCGGCTTGGGTTCTAACCTGTTGCTT (site TAGCCGGCTAA)”, the “recombinant barcode read abundance (log10)” value came to 0.358.

As for “TAGCCGGCTTGGGTTCTAACCTGTTGCTT (site TAGCCGGCTAG)”, the “recombinant barcode read abundance (log10)” value worked out at 0.386.

Turning to “TAGCCTTCTTGGGTTCTAACCTGTTGCCT (site TAGCCTTCTAG)”, the “recombinant barcode read abundance (log10)” value was determined as 0.572.

Consider “TAGCCTTCTTGGGTTCTAACCTGTTGCCT (site TCGCCTTCTAG)”, for which the “recombinant barcode read abundance (log10)” value amounted to 0.204.

“TAGCCTTCTTGGGTTCTAACCTGTTGCCT (site TGGCCTTCTAG)”: the “recombinant barcode read abundance (log10)” value amounted to 0.0192.

On to “TAGCCTTCTTGGGTTCTAACCTGTTGCCT (site TTGCCTTCTAG)”, for which the “recombinant barcode read abundance (log10)” value is 0.0659.

As for “TAGCGGACTTGGGTTCTAACCTGTTGCAT (site TAGCGGACTAT)”, the “recombinant barcode read abundance (log10)” value was 0.992.

As for “TAGCGGACTTGGGTTCTAACCTGTTGCAT (site TAGCGGTCTAG)”, the “recombinant barcode read abundance (log10)” value is 0.0826.

With “TAGCGGTCTTGGGTTCTAACCTGTTGCCT (site TAGCGGACTAT)”, the “recombinant barcode read abundance (log10)” value was determined as 0.0756.

Regarding “TAGCGGTCTTGGGTTCTAACCTGTTGCCT (site TAGCGGTCTAG)”, the “recombinant barcode read abundance (log10)” value was determined as 1.46.

As to “TAGCGTACTTGGGTTCTAACCTGTTGCGG (site TAGCGTACTAC)”, the “recombinant barcode read abundance (log10)” value was found to be 0.107.

With “TAGCGTACTTGGGTTCTAACCTGTTGCGG (site TAGCGTACTCC)”, the “recombinant barcode read abundance (log10)” value worked out at 1.79.

In the case of “TAGCTCACTTGGGTTCTAACCTGTTGCGG (site TAGCACACTCC)”, the “recombinant barcode read abundance (log10)” value came to 0.0805.

Regarding “TAGCTCACTTGGGTTCTAACCTGTTGCGG (site TAGCCCACTCC)”, the “recombinant barcode read abundance (log10)” value is 0.581.

Take “TAGCTCACTTGGGTTCTAACCTGTTGCGG (site TAGCGCACTCC)”: the “recombinant barcode read abundance (log10)” value turned out to be 0.791.

For “TAGCTCACTTGGGTTCTAACCTGTTGCGG (site TAGCTCACTCC)”, the “recombinant barcode read abundance (log10)” value amounted to 1.3.

For “TAGCTCCCTTGGGTTCTAACCTGTTGCCG (site TAGCTCCCTAG)”, the “recombinant barcode read abundance (log10)” value is 0.475.

As to “TAGCTCCCTTGGGTTCTAACCTGTTGCCG (site TAGCTCCCTCG)”, the “recombinant barcode read abundance (log10)” value was 1.43.

Consider “TAGCTCCCTTGGGTTCTAACCTGTTGCCG (site TAGCTCCCTGG)”, for which the “recombinant barcode read abundance (log10)” value worked out at 0.238.

Regarding “TAGCTCCCTTGGGTTCTAACCTGTTGCCG (site TAGCTCCCTTG)”, the “recombinant barcode read abundance (log10)” value was 0.379.

On to “TAGCTCCCTTGGGTTCTAACCTGTTGCCT (site TAGCTCCCTAG)”, for which the “recombinant barcode read abundance (log10)” value was 1.21.

Regarding “TAGCTCCCTTGGGTTCTAACCTGTTGCCT (site TAGCTCCCTCG)”, the “recombinant barcode read abundance (log10)” value was 0.0637.

With “TAGCTCCCTTGGGTTCTAACCTGTTGCCT (site TAGCTCCCTGG)”, the “recombinant barcode read abundance (log10)” value is 0.105.

Take “TAGCTCCCTTGGGTTCTAACCTGTTGCCT (site TAGCTCCCTTG)”: the “recombinant barcode read abundance (log10)” value is 0.016.

Consider “TAGCTGACTTGGGTTCTAACCTGTTGCCT (site TAGCAGACTAG)”, for which the “recombinant barcode read abundance (log10)” value was 1.14.

“TAGCTGACTTGGGTTCTAACCTGTTGCCT (site TAGCCGACTAG)”: the “recombinant barcode read abundance (log10)” value was 0.624.

As for “TAGCTGACTTGGGTTCTAACCTGTTGCCT (site TAGCGGACTAG)”, the “recombinant barcode read abundance (log10)” value stood at 0.194.

Consider “TAGCTGACTTGGGTTCTAACCTGTTGCCT (site TAGCTGACTAG)”, for which the “recombinant barcode read abundance (log10)” value amounted to 1.28.

For the sequence “TAGGAACCTTGGGTTCTAACCTGTTGCGT (site GAGGAGCCTAC)”, the “recombinant barcode read abundance (log10)” value amounted to 0.022.

Consider “TAGGAACCTTGGGTTCTAACCTGTTGCGT (site TAGGAACCTAC)”, for which the “recombinant barcode read abundance (log10)” value is 3.35.

For the sequence “TAGGAAGCTTGGGTTCTAACCTGTTGCGA (site TAGAAAGCTTG)”, the “recombinant barcode read abundance (log10)” value turned out to be 0.108.

As to “TAGGAAGCTTGGGTTCTAACCTGTTGCGA (site TAGGAAGCTTC)”, the “recombinant barcode read abundance (log10)” value came out at 2.34.

Turning to “TAGGACTCTTGGGTTCTAACCTGTTGCAT (site CCTCGTCCTGG)”, the “recombinant barcode read abundance (log10)” value came to 0.0204.

Consider “TAGGACTCTTGGGTTCTAACCTGTTGCAT (site TAGGACTCTAT)”, for which the “recombinant barcode read abundance (log10)” value came out at 1.79.

For “TAGGAGACTTGGGTTCTAACCTGTTGCCC (site CAGGAGACTAG)”, the “recombinant barcode read abundance (log10)” value is 0.0355.

Turning to “TAGGAGACTTGGGTTCTAACCTGTTGCCC (site TAGGAGACTGG)”, the “recombinant barcode read abundance (log10)” value is 1.99.

In the case of “TAGGAGACTTGGGTTCTAACCTGTTGCGT (site TAGGAAACTAC)”, the “recombinant barcode read abundance (log10)” value was 1.42.

On to “TAGGAGACTTGGGTTCTAACCTGTTGCGT (site TAGGACACTAC)”, for which the “recombinant barcode read abundance (log10)” value was determined as 0.642.

Turning to “TAGGAGACTTGGGTTCTAACCTGTTGCGT (site TAGGAGACTAC)”, the “recombinant barcode read abundance (log10)” value came to 2.56.

“TAGGAGACTTGGGTTCTAACCTGTTGCGT (site TAGGATACTAC)”: the “recombinant barcode read abundance (log10)” value is 0.233.

Turning to “TAGGAGCCTTGGGTTCTAACCTGTTGCGT (site TACGAACCTAC)”, the “recombinant barcode read abundance (log10)” value stood at 0.323.

For “TAGGAGCCTTGGGTTCTAACCTGTTGCGT (site TAGGAGCCTAC)”, the “recombinant barcode read abundance (log10)” value was 3.27.

For “TAGGCCACTTGGGTTCTAACCTGTTGCCT (site TAGGCCACTAA)”, the “recombinant barcode read abundance (log10)” value came to 0.0204.

In the case of “TAGGCCACTTGGGTTCTAACCTGTTGCCT (site TAGGCCACTAC)”, the “recombinant barcode read abundance (log10)” value is 0.122.

On to “TAGGCCACTTGGGTTCTAACCTGTTGCCT (site TAGGCCACTAG)”, for which the “recombinant barcode read abundance (log10)” value came to 0.592.

In the case of “TAGGCCACTTGGGTTCTAACCTGTTGCCT (site TAGGCCACTAT)”, the “recombinant barcode read abundance (log10)” value turned out to be 0.

With “TAGGCGCCTTGGGTTCTAACCTGTTGCAT (site TAGGCGCCTAA)”, the “recombinant barcode read abundance (log10)” value amounted to 4.17.

Take “TAGGCGCCTTGGGTTCTAACCTGTTGCAT (site TAGGCGCCTAC)”: the “recombinant barcode read abundance (log10)” value came to 0.723.

In the case of “TAGGCGCCTTGGGTTCTAACCTGTTGCAT (site TAGGCGCCTAG)”, the “recombinant barcode read abundance (log10)” value was 0.0713.

Consider “TAGGCGCCTTGGGTTCTAACCTGTTGCAT (site TAGGCGCCTAT)”, for which the “recombinant barcode read abundance (log10)” value was 0.299.

Take “TAGGCGCCTTGGGTTCTAACCTGTTGCGT (site TAGGCGCCTAA)”: the “recombinant barcode read abundance (log10)” value is 0.0787.

On to “TAGGCGCCTTGGGTTCTAACCTGTTGCGT (site TAGGCGCCTAC)”, for which the “recombinant barcode read abundance (log10)” value was 0.735.

Consider “TAGGCGCCTTGGGTTCTAACCTGTTGCGT (site TAGGCGCCTAG)”, for which the “recombinant barcode read abundance (log10)” value is 0.0904.

In the case of “TAGGCGCCTTGGGTTCTAACCTGTTGCGT (site TAGGCGCCTAT)”, the “recombinant barcode read abundance (log10)” value worked out at 0.249.
